Source: patent publication US10238635B2, “N-carbamoylated urethane for treating a neuroinflammatory disease” (Kyungpook National University Industry—Academic Cooperation …, priority 2016, dated 2019)
“Also recorded” adds a separate entry of the source. Values belong to the compound of their own block, whether it stands above or below them.

Assays:
[1] = tested on: BV-2 microglial cells; experiment: LPS-induced NO production in BV-2 microglial cells (Griess, nitrite); type: cell-based, murine; conditions: LPS 100 ng/ml; for inhibition at 10 µM: Mus musculus, BV-2 microglial cells, 10 μM compound, LPS-increased NO production = 100%
Experimental: (§1) BV-2 cells, a murine microglial cell line, were cultured in Dulbecco's modified Eagle's medium (DMEM) containing 5% heat-inactivated FBS and 50 μg/ml gentamicin at 37° C. Rat microglial HAPI cells and mouse primary astrocytes were cultured in DMEM (10% FBS, 10 U/ml penicillin, 10 μg/ml streptomycin) at 37° C. All animals and experimental procedures were approved by the Institutional Review Board of Kyungpook National University School of Pharmacy and were carried out in accordance with the NIH Guide for the Care and Use of Laboratory Animals. All animals were maintained under temperature- and humidity-controlled conditions.
(§2) The production of nitric oxide (NO) was estimated by measuring the amount of nitrite, which is a NO metabolite. The BV-2 cells (40,000 cells/well in 96-well plates) were treated with 100 ng/ml of LPS in the presence or absence of the compounds from the library. At the end of a 24 hour incubation period, 50 μl of the cell culture media was mixed with an equal volume of a Griess reagent in each well. The light absorbance was measured at 540 nm, while a standard curve was generated using sodium nitrite.
(§3) Specifically, the BV-2 cells were cultured in 96-well plates and stimulated with LPS at a concentration of 100 ng/ml. The BV-2 cells stimulated with LPS were treated with 3,500 low molecular weight substances (FIG. 1).
While an increased NO production by LPS is designated as 100%, a suppressed amount of NO production by each derivative of Compound 1 is presented by its respective percentage.

[2] = tested on: BV-2 cells; experiment: Cell viability, MTT assay; type: cell-based, murine
Experimental: Cell viability was assessed using MTT assay. After treatment with LPS and the compounds, the culture solution was aspirated and removed. MTT (0.5 mg/ml in PBS) was added to the cells and incubated at 37° C. for 4 hours. The resulting formazan was dissolved in DMSO. The absorbance was determined at 570 nm using a microplate reader.
as §3

[3] = tested on: HAPI rat microglial cells; experiment: LPS-induced NO release in HAPI cells; type: cell-based; conditions: various concentrations, 24 hours
Experimental: as §1
(§4) The present inventors confirmed the anti-neuroinflammatory effect of Compound 1, which was identified in Example 1, in the HAPI rat microglial cells and the RAW264.7 macrophage cells. The cells were cultured in 96-well plates, followed by treatment with various concentrations of Compound 1 with LPS, respectively. After 24 hours of such a treatment, NO release was examined.

[4] = tested on: RAW264.7 macrophage cells; experiment: LPS-induced NO release in RAW264.7 cells; type: cell-based; conditions: various concentrations, 24 hours
Experimental: as §4

[5] = tested on: BV-2 microglial cells; experiment: RT-PCR of LPS-induced pro-inflammatory gene expression in BV-2 cells; type: cell-based, murine; conditions: pre-treatment
Experimental: (§5) Total RNA was extracted from microglial cells or brain tissues using TRIZOL reagent (Invitrogen, Carlsbad, Calif., USA). Reverse transcription (RT) was performed using Superscript II reverse transcriptase (Invitrogen) and Oligo (dT) primers. Traditional polymerase chain reaction (PCR) amplification was performed using specific primer sets at annealing temperature 55-60° C. for 20-30 cycles. PCR was performed using C1000 Touch Thermal Cycler. For the PCR product analysis, 10 μl of each PCR reaction was electrophoresed on 1% agarose gel and detected under ultraviolet light.
(§6) Real-time RT-PCR was performed using Perfect Real-Time One Step SYBR Primer Script RT-PCR Kit (Takara Bio, Otsu, Shiga, Japan).
The primer sequences were designed based on published cDNA sequences (See Table 1).
Next, the effect of Compound 1 on the LPS-induced expression of pro-inflammatory mediators was examined in the BV-2 microglial cells.

[6] = tested on: astrocytes; experiment: NO, TNF-α production and Ym-1 expression in astrocytes; type: cell-based, mouse
Experimental: as §1
The mouse primary microglial cells were cultured under mild conditions according to known methods. In brief, the forebrains of 3-5 day-old C57BL/6 mice were harvested and mechanically pulverized using a nylon mesh. The cells were seeded onto a poly-L-lysine-coated flasks and then cultured. After in vitro culture of 10-14 days, the microglial cells were isolated from the mixed glial cultures by shaking for 6 hours at 200 rpm. Astrocytes remained attached to the bottom of the culture flask were used for the following experiments. 3. High Throughput Screening
as §2, with “At the end of a 24 hour incubation period, 50 μl of the cell culture media was mixed with an equal volume of a Griess reagent in each well.” left out
The BV-2 cells or astrocytes were treated with LPS and Compound 1, followed by culturing for 24 hours. The TNF-α levels in the culture media were measured using a rat monoclonal anti-mouse TNF-α antibody as a primary antibody and a goat anti-mouse TNF-α antibody as a secondary antibody.
Total RNA was extracted from microglial cells or brain tissues using TRIZOL reagent (Invitrogen, Carlsbad, Calif., USA). […] For the PCR product analysis, 10 μl of each PCR reaction was electrophoresed on 1% agarose gel and detected under ultraviolet light. […]

[7] = Brain distribution and half-life after intraperitoneal administration; type: in vivo; conditions: 2 mg/kg, previous study by the inventors
[8] = tested on: LPS-induced mouse neuroinflammation model; experiment: LPS-induced mouse neuroinflammation model (Iba-1 immunostaining, real-time RT-PCR of brain); type: in vivo, C57BL/6 mice; conditions: 72 h after LPS
Experimental: as §5, §6
LPS was intraperitoneally administered according to a conventionally known method for producing neuroinflammatory mouse model. All experiments were performed on C57BL/6 mice aged 9-11 weeks, and the animals were supplied from Koatech. In each experiment, the animals were divided into four groups (Group 1, vehicle-treated group; Group 2, Compound 1-treated group; Group 3, LPS & vehicle-treated group; Group 4, LPS & Compound 1-treated group). Compound 1 (2 mg/kg) was dissolved in saline containing 5% DMSO and 40% polyethylene glycol and administered intraperitoneally daily for 4 days. LPS (5 mg/kg) induced a neuroinflammatory animal model by intraperitoneally administering its single dose on the second day.
For histological analysis, 72 hours after the administration of LPS, the animals were anesthetized and perfused transcardially first with saline and then with 4% paraformaldehyde. The activity of microglial cells was evaluated using Iba-1 staining. At least three animals were included in each experimental group. […]
The mice were then sacrificed, and the Iba-1 levels were analyzed as molecular markers of microglia activation (FIG. 6B).
The Iba-1-stained cells whose intensity values were above an arbitrarily defined threshold were counted from each of three brain regions, including the cortex, hippocampus, and substantia nigra.

[9] = 2 mg/kg i.p., LPS 5 mg/kg, real-time RT-PCR

SMILES: CCC(OC(=O)N(Cc1ccccc1)C(=O)Nc1ccc(C(F)(F)F)cc1)c1cc(-c2ccc(OC(C)(C)C(=O)O)cc2)no1 (centres unmarked) [4-trifluoromethyl, 2-(4-(5-(1-((benzyl((4-trifluoromethylphenyl)carbamoyl)carbamoyl)oxy)propyl)isoxazol-3-yl)phenoxy)-2-methylpropanoic acid]
inhibition at 10 µM [1]: 52.7%

SMILES: CCC(OC(=O)N(Cc1ccccc1)C(=O)Nc1ccccc1OC)c1cc(-c2ccc(OC(C)(C)C(=O)O)cc2)no1 (centres unmarked) [Compound 2-methoxy, 2-(4-(5-(1-((benzyl((2-methoxyphenyl)carbamoyl)carbamoyl)oxy)propyl)isoxazol-3-yl)phenoxy)-2-methylpropanoic acid]
inhibition at 10 µM [1]: 20.9%

SMILES: CCC(OC(=O)N(Cc1ccccc1)C(=O)Nc1ccc(C)cc1)c1cc(-c2ccc(OC(C)(C)C(=O)O)cc2)no1 (centres unmarked) [Compound 4-methyl, 2-(4-(5-(1-((benzyl((4-methylphenyl)carbamoyl)carbamoyl)oxy)propyl)isoxazol-3-yl)phenoxy)-2-methylpropanoic acid]
inhibition at 10 µM [1]: 46.7%

SMILES: CCC(OC(=O)N(Cc1ccccc1)C(=O)Nc1ccc(OC)cc1)c1cc(-c2ccc(OC(C)(C)C(=O)O)cc2)no1 (centres unmarked) [Compound 4-methoxy, 2-(4-(5-(1-((benzyl((4-methoxyphenyl)carbamoyl)carbamoyl)oxy)propyl)isoxazol-3-yl)phenoxy)-2-methylpropanoic acid]
inhibition at 10 µM [1]: 46.7%

SMILES: CCC(OC(=O)N(Cc1ccccc1)C(=O)Nc1ccc2c(c1)OCO2)c1cc(-c2ccc(OC(C)(C)C(=O)O)cc2)no1 (centres unmarked) [3,4-methylenedioxy]
inhibition at 10 µM [1]: 74.6%

SMILES: CCC(OC(=O)N(Cc1ccccc1)C(=O)Nc1ccc(Cl)cc1)c1cc(-c2ccc(OC(C)(C)C(=O)O)cc2)no1 (centres unmarked) [Compound 4-chloro]
inhibition at 10 µM [1]: 67.8%

SMILES: CCC(OC(=O)N(Cc1ccccc1)C(=O)Nc1cc(OC)cc(OC)c1)c1cc(-c2ccc(OC(C)(C)C(=O)O)cc2)no1 (centres unmarked) [3,5-dimethoxy]
inhibition at 10 µM [1]: 56.7%

SMILES: CCC(OC(=O)N(Cc1ccccc1)C(=O)Nc1cccc(OC)c1)c1cc(-c2ccc(OC(C)(C)C(=O)O)cc2)no1 (centres unmarked) [Compound 3-methoxy, 2-(4-(5-(1-((benzyl((3-methoxyphenyl)carbamoyl)carbamoyl)oxy)propyl)isoxazol-3-yl)phenoxy)-2-methylpropanoic acid]
inhibition at 10 µM [1]: 25.6%

SMILES: CCC(OC(=O)N(Cc1ccccc1)C(=O)Nc1ccc(OC)c(OC)c1)c1cc(-c2ccc(OC(C)(C)C(=O)O)cc2)no1 (centres unmarked) [3,4-dimethoxy, 2-(4-(5-(1-((benzyl((3,4-dimethoxymethylphenyl)carbamoyl)carbamoyl)oxy)propyl)isoxazol-3-yl)phenoxy)-2-methylpropanoic acid]
inhibition at 10 µM [1]: 60.7%

brain distribution [7]: 0.19 µg/h/mL
half-life ([7]; brain, ip): 5.23 h
SMILES: CCC(OC(=O)N(Cc1ccccc1)C(=O)Nc1ccccc1)c1cc(-c2ccc(OC(C)(C)C(=O)O)cc2)no1 (centres unmarked) [Compound 1, 2-(4-(5-(1-((benzyl(phenylcarbamoyl)carbamoyl)oxy)propyl)isoxazol-3-yl)phenoxy)-2-methylpropanoic acid]
inhibition of NO production in microglial cells (high-throughput screening) ([1]; BV-2 cells): effectively inhibiting NO production
inhibition at 10 µM [1]: 73.4%
cytotoxicity [2]: low in cytotoxicity
LPS-induced NO release [3]: inhibits the LPS-induced NO release in the microglial and macrophage cells in a dose-dependent manner
LPS-induced NO release [4]: inhibits the LPS-induced NO release in the microglial and macrophage cells in a dose-dependent manner
expression of IL-1β gene [5]: significantly reduced
expression of TNF-α gene [5]: significantly reduced
expression of iNOS gene [5]: significantly reduced
IL-4-induced Ym-1 expression in astrocytes ([6]; IL-4): increasing
LPS-induced NO production in astrocytes ([6]; LPS): inhibited
LPS-induced TNF-α production in astrocytes ([6]; LPS): inhibited
LPS-induced microglial activation (Iba-1 positive cells) ([8]; 2 mg/kg i.p. daily for 4 days, LPS 5 mg/kg i.p., cortex, hippocampus, substantia nigra): significantly reduced; also recorded: effectively blocked
expression level of IL-1β mRNA in brain [8, 9]: significantly diminished
expression level of TNF-α mRNA in brain [8, 9]: significantly diminished

SMILES: CCCCc1ccc(NC(=O)N(Cc2ccccc2)C(=O)OC(CC)c2cc(-c3ccc(OC(C)(C)C(=O)O)cc3)no2)cc1 (centres unmarked) [Compound 4-n-butyl, 2-(4-(5-(1-((benzyl((4-n-butylmethylphenyl)carbamoyl)carbamoyl)oxy)propyl)isoxazol-3-yl)phenoxy)-2-methylpropanoic acid]
inhibition at 10 µM [1]: 58.3%
